{
  "source": "patent US9862684B2",
  "about": "“Modulation of K2P channels” (The Regents of the University of California, priority 2013, dated 2018)",
  "target": "T1, K2P2.1 (TREK-1) (Mus musculus, UniProt P97438)",
  "T1 construct": "expressed in transfected cells; host or cells: Xenopus oocytes (cRNA injection, pGEMHE/pMO)",
  "T1 sequence (P97438 1-411 isoform P97438-2)": "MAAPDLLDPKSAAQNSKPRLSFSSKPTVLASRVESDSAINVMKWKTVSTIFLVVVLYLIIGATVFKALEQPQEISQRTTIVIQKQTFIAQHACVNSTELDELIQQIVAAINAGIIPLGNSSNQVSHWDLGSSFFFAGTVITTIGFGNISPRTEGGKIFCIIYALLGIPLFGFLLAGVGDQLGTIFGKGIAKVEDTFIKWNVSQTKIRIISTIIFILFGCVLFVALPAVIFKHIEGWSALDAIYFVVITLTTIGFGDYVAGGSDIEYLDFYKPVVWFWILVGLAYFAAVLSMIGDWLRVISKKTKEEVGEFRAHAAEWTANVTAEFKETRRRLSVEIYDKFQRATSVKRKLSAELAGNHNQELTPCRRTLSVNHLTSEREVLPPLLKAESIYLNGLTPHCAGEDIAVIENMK",
  "assay": "Two-electrode voltage clamp of Xenopus oocytes expressing K2P2.1 (TREK-1)",
  "format": "cell-based, Murine",
  "note": "Read-outs that look alike come from different tables or passages of the source.",
  "data": [
    {"smiles": "CC1(C)c2cc(Cl)ccc2N(CCc2nnn[nH]2)c2ccc(Cl)cc21", "note": "[ML67-33, 2,7-dichloro-9,9-dimethyl-10-[2-(1H-tetrazol-5-yl)ethyl]acridine]", "values": [
      {"measurement": "EC50", "setting": "Xenopus oocytes, 2 mM [K+]o pH 7.4, data at 0 mV, normalized to basal activity, Hill fit, read-out: EC50", "result": "36.3 ± 1.04", "unit": "µM"},
      {"measurement": "Emax (fold) at 100 μM", "setting": "Xenopus oocytes, at 100 μM (FIG. 4, 7 legends), marked ** in Table 1, footnote not given", "result": "11.1±0.4", "unit": "fold"},
      {"measurement": "Emax (fold)", "setting": "Xenopus oocytes, fold over basal current, no concentration stated", "result": "11.1 ± 0.4", "unit": "fold"},
      {"measurement": "response of K2P2.1 (TREK-1) to ML67-33 with C-type gate stabilized (in words)", "setting": "high extracellular potassium, 90 mM [K+]o", "result": "reduced the response"},
      {"measurement": "EC50", "setting": "spans oocytes and HEK cells, read-out: concentration at which the compound acts (EC50 range)", "result": "9.7 to 36.3", "unit": "µM"}
    ]}
  ]
}
